Structures can show the parent of a compound that is named as a salt.
How the values were obtained:
Format in all cases: in vivo, Human
[1] = test system: children and young adults with Dravet syndrome; experiment: Study 1: Behavior Rating Inventory of Executive Function (BRIEF); details: for BRIEF Global Executive Composite, change from baseline, mean: raw scores, negative = improvement
From the text: In the BRIEF test, the parent/caregiver and/or the patient (e.g., child or adolescent self-reporting) responds to a series of statements or questions in the form of questionnaires, where an answer of “N”=Never a problem, “S”=Sometimes a problem, and “O”=Often a problem are used to indicate that the behavior being described or assessed has occurred in the past 6 months.
Each questionnaire of the BRIEF parent- and teacher-rating form contains 86 items in eight non-overlapping clinical scales and two validity scales. Based on theoretical and empirical analyses (reviewed in chapter 5 of Gioia, Ibid.), the clinical scales combine to form two indexes: a) Behavioral Regulation (three scales) and b) Metacognition (five scales), as well as a Global Executive Composite (GEC), which is a summary score that takes into account all eight clinical scales of the BRIEF and represents the child's overall executive function. There are also two validity scales to measure Negativity and Inconsistency of responses. Scores on the Negativity scale measures the extent to which the respondent answered selected items in an unusually negative manner whereas scores on the Inconsistency scale indicate the extent to which the respondent answered similar items in an inconsistent manner.
The BRIEF (BRIEF-A or BRIEF-P) were administered at the time of patient randomization (on visit 3, which was one day before (study day “−1”) treatment began (study day 1)); the BRIEF was administered again during visit 8 (study day 43), and at the end of the study (visit 12, study day 99) to assess cognitive function.
The incidence of treatment-emergent adverse events (TEAEs) was monitored continuously during the study. TEAEs were graded by the investigator as mild, moderate, or severe, and related or not related to study medication. Vital signs, height, weight, and clinical laboratory evaluations were performed at each study visit. The Behavior Rating Inventory of Executive Function (BRIEF) was administered at baseline and periodically during the treatment period to assess for any effects of treatment on cognitive function. Doppler echocardiography (ECHOs) and 12-lead electrocardiography (ECGs) were performed during the screening/baseline period, after 6 weeks of treatment, and after 14 weeks of treatment at the end of the maintenance period. The ECGs and ECHOs were evaluated by two independent cardiologists who were blind to treatment randomization. In the event of disagreement, a third cardiologist arbitrated the decision.

[2] = test system: children and young adults with Dravet syndrome; experiment: Study 1: quality of life (PedsQL, QOLCE); details: increase indicates improvement
Procedure: In Study 1, subjects were assessed using Clinical Global Impression (CGI), allowing the parent/caregiver and principal investigator to assess improvement, as well as the Quality of Life in Childhood Epilepsy (QOLCE) Scale and the Pediatric Quality of Life Inventory (PedsQL) to measure changes in the quality of life of the subject. Comparisons between treatment groups were made using Wilcoxon rank sum tests.
In 2003, Varni and colleagues published a study intended to determine the feasibility, reliability, and validity of the 23-item PEDSQL 4.0 (Pediatric Quality of Life Inventory) Generic Core Scales as a measure of pediatric population health for children and adolescents. The instrument was given to over 10,000 families with children age 2-16 in the state of California. From Varni, et al., parent reported changes in each of the scales and summary scores that could be considered clinically meaningful include a change of >1 SEM or Standard Error of Measurement as a cut point.

[3] = test system: subjects with Dravet syndrome; experiment: Study 1503: open-label long-term extension, CGI-I at baseline and final visit
Procedure: Study 1503 was an open-label, long-term safety study of ZX008 in subjects with Dravet syndrome who successfully completed 14 weeks of treatment in 1501, 1502, or 1504 Cohorts 1 and 2. […] CGI-S(baseline scores) were determined at entry into 1503 (i.e., after completing a blinded 16 week trial) and then again at each patient's final visit. FIGS. 7 and 8, and Tables 3 and 4 present numbers of patients having each of the 7 ratings and statistical calculations of improvements.
The CGI scale measures the change in the subject's clinical status from a specific point in time, i.e., the Baseline Period (and also referred to as the CGI-S, an initial ranking of severity). The CGI rating scale permits a global evaluation of the subject's improvement over time.

CCNC(C)Cc1cccc(C(F)(F)F)c1 (centres unmarked) [ZX008, fenfluramine hydrochloride]
BRIEF BRI, improvement compared to baseline as compared to placebo ([1]; 0.2 mg/kg/day, P<0.05): significant improvement | BRIEF Global Executive Composite, change from baseline, mean ([1]; 0.2 mg/kg/day): −4.4 ± 22.3 | BRIEF BRI, improvement compared to baseline as compared to placebo ([1]; 0.8 mg/kg/day, P<0.05): statistically significant improvement | BRIEF GEC, improvement compared to baseline as compared to placebo ([1]; 0.8 mg/kg/day, P<0.05): statistically significant improvement | BRIEF Global Executive Composite, change from baseline, mean ([1]; 0.8 mg/kg/day): −11.0 ± 29.1 | BRIEF-P, difference from placebo ([1]; 0.2 and 0.8 mg/kg/day, hydrochloride): No changes | Pediatric Quality of Life Inventory (Peds QL) Total Score, change from baseline, mean ± SD ([2]; 0.2 mg/kg/day): 6.8 ± 11.3 | Pediatric Quality of Life Inventory (Peds QL) Total Score, change from baseline, mean ± SD ([2]; 0.8 mg/kg/day): 5.9 ± 15.1 | CGI-I investigator, 1 = Very much improved, % of subjects ([3]; OLE Baseline): (15.8) % | CGI-I investigator, 1 = Very much improved, N of subjects ([3]; OLE Baseline): 35 | CGI-I investigator, 2 = Much improved, % of subjects ([3]; OLE Baseline): (24.4) % | CGI-I investigator, 2 = Much improved, N of subjects ([3]; OLE Baseline): 54 | CGI-I investigator, 3 = Minimally improved, % of subjects ([3]; OLE Baseline): (20.8) % | CGI-I investigator, 3 = Minimally improved, N of subjects ([3]; OLE Baseline): 46 | CGI-I investigator, 4 = No change, % of subjects ([3]; OLE Baseline): (32.6) % | CGI-I investigator, 4 = No change, N of subjects ([3]; OLE Baseline): 72 | CGI-I investigator, 5 = Minimally worse, % of subjects ([3]; OLE Baseline): (5.0) % | CGI-I investigator, 5 = Minimally worse, N of subjects ([3]; OLE Baseline): 11 | CGI-I investigator, 6 = Much worse, % of subjects ([3]; OLE Baseline): (1.4) % | CGI-I investigator, 6 = Much worse, N of subjects ([3]; OLE Baseline): 3 | CGI-I investigator, 7 = Very much worse, % of subjects ([3]; OLE Baseline): (0.0) % | CGI-I investigator, 7 = Very much worse, N of subjects ([3]; OLE Baseline): 0 | CGI-I investigator, Improved (1, 2, 3), % ([3]; OLE Baseline): (61.1) % | CGI-I investigator, Much/very much improved (1, 2), % ([3]; OLE Baseline): (40.3) % | CGI-I parent/caregiver, 1 = Very much improved, % of subjects ([3]; OLE Baseline): (16.4) % | CGI-I parent/caregiver, 1 = Very much improved, number of subjects ([3]; OLE Baseline): 37 | CGI-I parent/caregiver, 2 = Much improved, % of subjects ([3]; OLE Baseline): (21.8) % | CGI-I parent/caregiver, 2 = Much improved, number of subjects ([3]; OLE Baseline): 49 | CGI-I parent/caregiver, 3 = Minimally improved, % of subjects ([3]; OLE Baseline): (19.1) % | CGI-I parent/caregiver, 3 = Minimally improved, number of subjects ([3]; OLE Baseline): 43 | CGI-I parent/caregiver, 4 = No change, % of subjects ([3]; OLE Baseline): (26.7) % | CGI-I parent/caregiver, 4 = No change, number of subjects ([3]; OLE Baseline): 60 | CGI-I parent/caregiver, 5 = Minimally worse, % of subjects ([3]; OLE Baseline): (10.7) % | CGI-I parent/caregiver, 5 = Minimally worse, number of subjects ([3]; OLE Baseline): 24 | CGI-I parent/caregiver, 6 = Much worse, % of subjects ([3]; OLE Baseline): (4.0) % | CGI-I parent/caregiver, 6 = Much worse, number of subjects ([3]; OLE Baseline): 9 | CGI-I parent/caregiver, 7 = Very much worse, % of subjects ([3]; OLE Baseline): (1.3) % | CGI-I parent/caregiver, 7 = Very much worse, number of subjects ([3]; OLE Baseline): 3 | CGI-I parent/caregiver, Improved (1, 2, 3), % ([3]; OLE Baseline): (57.3) % | CGI-I parent/caregiver, Much/very much improved (1, 2), % ([3]; OLE Baseline): (38.2) % | CGI-I investigator rating, Median ([3]; OLE Baseline, N 221, 7-point scale): 3.0 | CGI-I investigator rating, Mean ([3]; OLE Baseline, N 221, scale 1 very much improved to 7 very much worse): 2.9 | CGI-I parent/caregiver rating, Median ([3]; OLE Baseline, N 225, 7-point scale): 3.0 | CGI-I parent/caregiver rating, Mean ([3]; OLE Baseline, N 225, scale 1 very much improved to 7 very much worse): 3.1 | CGI-I investigator, 1 = Very much improved, % of subjects ([3]; OLE Final Visit): (27.6) % | CGI-I investigator, 1 = Very much improved, N of subjects ([3]; OLE Final Visit): 70 | CGI-I investigator, 2 = Much improved, % of subjects ([3]; OLE Final Visit): (36.6) % | CGI-I investigator, 2 = Much improved, N of subjects ([3]; OLE Final Visit): 93 | CGI-I investigator, 3 = Minimally improved, % of subjects ([3]; OLE Final Visit): (21.3) % | CGI-I investigator, 3 = Minimally improved, N of subjects ([3]; OLE Final Visit): 54 | CGI-I investigator, 4 = No change, % of subjects ([3]; OLE Final Visit): (7.9) % | CGI-I investigator, 4 = No change, N of subjects ([3]; OLE Final Visit): 20 | CGI-I investigator, 5 = Minimally worse, % of subjects ([3]; OLE Final Visit): (5.5) % | CGI-I investigator, 5 = Minimally worse, N of subjects ([3]; OLE Final Visit): 14 | CGI-I investigator, 6 = Much worse, % of subjects ([3]; OLE Final Visit): (1.2) % | CGI-I investigator, 6 = Much worse, N of subjects ([3]; OLE Final Visit): 3 | CGI-I investigator, 7 = Very much worse, % of subjects ([3]; OLE Final Visit): (0.0) % | CGI-I investigator, 7 = Very much worse, N of subjects ([3]; OLE Final Visit): 0 | CGI-I investigator, Improved (1, 2, 3), % ([3]; OLE Final Visit): (85.4) % | CGI-I investigator, Much/very much improved (1, 2), % ([3]; OLE Final Visit): (64.2) % | CGI-I parent/caregiver, 1 = Very much improved, % of subjects ([3]; OLE Final Visit): (27.0) % | CGI-I parent/caregiver, 1 = Very much improved, number of subjects ([3]; OLE Final Visit): 67 | CGI-I parent/caregiver, 2 = Much improved, % of subjects ([3]; OLE Final Visit): (35.5) % | CGI-I parent/caregiver, 2 = Much improved, number of subjects ([3]; OLE Final Visit): 88 | CGI-I parent/caregiver, 3 = Minimally improved, % of subjects ([3]; OLE Final Visit): (19.8) % | CGI-I parent/caregiver, 3 = Minimally improved, number of subjects ([3]; OLE Final Visit): 49 | CGI-I parent/caregiver, 4 = No change, % of subjects ([3]; OLE Final Visit): (7.7) % | CGI-I parent/caregiver, 4 = No change, number of subjects ([3]; OLE Final Visit): 19 | CGI-I parent/caregiver, 5 = Minimally worse, % of subjects ([3]; OLE Final Visit): (5.2) % | CGI-I parent/caregiver, 5 = Minimally worse, number of subjects ([3]; OLE Final Visit): 13 | CGI-I parent/caregiver, 6 = Much worse, % of subjects ([3]; OLE Final Visit): (4.0) % | CGI-I parent/caregiver, 6 = Much worse, number of subjects ([3]; OLE Final Visit): 10 | CGI-I parent/caregiver, 7 = Very much worse, % of subjects ([3]; OLE Final Visit): (0.8) % | CGI-I parent/caregiver, 7 = Very much worse, number of subjects ([3]; OLE Final Visit): 2 | CGI-I parent/caregiver, Improved (1, 2, 3), % ([3]; OLE Final Visit): (82.3) % | CGI-I parent/caregiver, Much/very much improved (1, 2), % ([3]; OLE Final Visit): (62.5) % | CGI-I parent/caregiver rating, Median ([3]; OLE Final Visit, n 248, 7-point scale): 2.0 | CGI-I parent/caregiver rating, Mean ([3]; OLE Final Visit, n 248, scale 1 very much improved to 7 very much worse): 2.4 | CGI-I investigator rating, Median ([3]; OLE Final Visit, n 254, 7-point scale): 2.0 | CGI-I investigator rating, Mean ([3]; OLE Final Visit, n 254, scale 1 very much improved to 7 very much worse): 2.3

Source: US20200306210A1 (ZOGENIX INTERNATIONAL LIMITED, priority 2017, published 2020)
